Measured values as given in ChEMBL document CHEMBL2146384 (J Med Chem, 2012).

Columns and labels:
[1] = biological target: T1, Deoxyuridine 5'-triphosphate nucleotidohydrolase, mitochondrial (Homo sapiens, UniProt P33316); assay: Inhibition of human dUTPase-mediated formation of [5-3H]dUMP expressed in Escherichia coli BL21 (DE3) after 15 mins by HPLC analysis
T1 sequence (P33316 whole entry): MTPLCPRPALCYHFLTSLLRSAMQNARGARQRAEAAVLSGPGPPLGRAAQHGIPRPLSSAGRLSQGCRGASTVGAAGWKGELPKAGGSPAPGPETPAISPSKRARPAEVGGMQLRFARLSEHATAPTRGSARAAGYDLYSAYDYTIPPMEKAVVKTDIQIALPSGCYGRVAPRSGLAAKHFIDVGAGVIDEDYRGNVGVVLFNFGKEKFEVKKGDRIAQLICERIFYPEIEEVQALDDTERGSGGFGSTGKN

[2] = test system: Mus musculus; assay: Toxicity in Balb/cA JcL mouse xenografted with human MX1 cells assessed as mortality at 300 mg/kg/day, po co-administered with 5-FU at 15 mg/kg/day as continuous infusion measured on day 15; format: organism-based; conditions: in vivo
[3] = AUC (0 to t) in Balb/cA mouse at 50 mg/kg, po; format: ADME, organism-based; set-up: dose 50 mg/kg, route oral; conditions: plasma
[4] = Cmax in Balb/cA mouse at 50 mg/kg, po; format: ADME, organism-based; set-up: dose 50 mg/kg, route oral; conditions: in vivo
[5] = Half life in Balb/cA mouse at 50 mg/kg, po; format: ADME, organism-based; set-up: dose 50 mg/kg, route oral; conditions: in vivo
[6] = Tmax in Balb/cA mouse at 50 mg/kg, po; format: ADME, organism-based; set-up: dose 50 mg/kg, route oral; conditions: in vivo
[7] = test system: MX1; assay: Potentiation of 5-FU induced antitumor activity in human MX1 cells xenografted in Balb/cA JcL mouse at 300 mg/kg/day, po measured on day 15; format: functional; conditions: MX1, 360 h
[8] = test system: MX1; assay: Antitumor activity against human MX1 cells xenografted in Balb/cA JcL mouse at 300 mg/kg/day, po measured on day 15; format: functional; conditions: MX1, 360 h
[9] = test system: Mus musculus; assay: Toxicity in Balb/cA JcL mouse xenografted with human MX1 cells assessed as reduction of body weight at 300 mg/kg/day, po co-administered with 5-FU at 15 mg/kg/day as continuous infusion measured on day 15; format: organism-based; conditions: in vivo
[10] = test system: MX1; assay: Antitumor activity against human MX1 cells xenografted in Balb/cA JcL mouse at 15 mg/kg/day dosed as as continuous infusion measured on day 15; format: functional; conditions: MX1, 360 h

Compound	IC50 [1] [µM]	further results
CC(C)(NS(=O)(=O)c1ccccc1)c1ccc(Cn2ccc(=O)[nH]c2=O)cc1	1.8	–
CC(C)(CC/C=C/Cn1ccc(=O)[nH]c1=O)NS(=O)(=O)c1ccccc1	1.6	–
COc1cccc(S(=O)(=O)NC(C)(C)c2ccc(Cn3ccc(=O)[nH]c3=O)cc2)c1	1.27	–
CC(C)(NS(=O)(=O)c1cccc(OCC2CC2)c1)c1ccc(Cn2ccc(=O)[nH]c2=O)cc1	0.073	–
CC(C)(NS(=O)(=O)c1cccc(OC2CCCC2)c1)c1ccc(Cn2ccc(=O)[nH]c2=O)cc1	0.031	–
CC(C)(NS(=O)(=O)c1cccc(OCC(F)F)c1)c1ccc(Cn2ccc(=O)[nH]c2=O)cc1	0.073	–
COc1cccc(S(=O)(=O)NC(C)(C)CC/C=C/Cn2ccc(=O)[nH]c2=O)c1	0.34	–
CC(C)(CC/C=C/Cn1ccc(=O)[nH]c1=O)NS(=O)(=O)c1cccc(OC2CCCC2)c1	0.033	–
CC(C)(CC/C=C/Cn1ccc(=O)[nH]c1=O)NS(=O)(=O)c1cccc(OCC(F)F)c1	0.026	–
C[C@@H](NS(=O)(=O)c1ccc(Cn2ccc(=O)[nH]c2=O)cc1)c1cccc(OCC2CC2)c1	0.82	–
C[C@@H](NS(=O)(=O)c1ccc(Cn2ccc(=O)[nH]c2=O)cc1)c1cccc(OC2CCCC2)c1	0.43	–
C[C@@H](NS(=O)(=O)c1ccc(Cn2ccc(=O)[nH]c2=O)cc1)c1cccc(OCC(F)F)c1	0.41	–
C[C@@H](NS(=O)(=O)CC/C=C/Cn1ccc(=O)[nH]c1=O)c1cccc(OCC2CC2)c1	0.039	Activity [2]: Non-toxic; AUC(0-t) [3]: 19.5 µM·h; Cmax [4]: 19.5 µM; half-life [5]: 53.4 min; Tmax [6]: 30 min; inhibition in vivo at 300 mg/kg/day [7]: 68%; inhibition in vivo at 300 mg/kg/day [8]: -29%; Activity [9]: Non-toxic
C[C@@H](NS(=O)(=O)CC/C=C/Cn1ccc(=O)[nH]c1=O)c1cccc(OC2CCCC2)c1	0.041	–
C[C@@H](NS(=O)(=O)CC/C=C/Cn1ccc(=O)[nH]c1=O)c1cccc(OCC(F)F)c1	0.082	–
O=c1[nH]cc(F)c(=O)[nH]1 [FLUOROURACIL]	–	inhibition in vivo at 15 mg/kg/day [10]: 20%
